Reference: patent US8975265B2, “Substituted imidazo[1,2-a]pyrimidines and —pyridines” (Bayer Intellectual Property GmbH, priority 2010, dated 2015)
Where two headings read alike, the source gives them in different places.

Assays:
[1] = test system: KPL-4 breast cancer cell line; assay: Tumor cell proliferation assay (CellTiter-Glo, 72 h), KPL-4; type: cell-based
Description: Biological Assay 4.0: Tumor Cell Proliferation Assays
(§1) Compounds were tested in a cell-based assay that measures the capacity of the compounds to inhibit tumour cell proliferation following a 72h drug exposure. Cell viability is determined using CellTiter-Glow® (CTG, Promega, cat# G7571/2/3). The CellTiter-Glo® Luminescent Cell Viability Assay is a homogeneous method to determine the number of viable cells in culture. Detection is based on using the luciferase reaction to measure the amount of ATP from viable cells. The amount of ATP in cells correlates with cell viability. Within minutes after a loss of membrane integrity, cells lose the ability to synthesize ATP, and endogenous ATPases destroy any remaining ATP; thus the levels of ATP fall precipitously.
(§2) For each cell line assayed, cells were plated onto a separate plate for determination of […] at t=0 hour and t=72 hour time points. Following overnight incubation at 37° C., chemiluminescence values for the t=0 samples were determined after adding 10 μl medium and 100 μl CTG solution according to manufacture protocol. Plates for the t=72 hour time points were treated with compounds diluted into growth medium at ten times final concentration added in 10 μL to the cell culture plate. Cells were then incubated for 72 hours at 37° C. Chemiluminescence values for the t=72 hour samples were determined. […] Experiments were controlled using a reference compound as standard.

[2] = test system: p-AKT1/2/3-S473 in KPL4 breast tumour cell line; assay: Cellular p-AKT1/2/3-S473 assay; type: cell-based; conditions: read-out: pAKT-S743 median IC50
Description: The molecular mechanism of action was investigated in a set of experiments to assess the inhibition of the PI3K-AKT-mTOR pathway in responsive cell lines such as KPL4 breast tumour cell line (PIK3CAH1047R, HER20/E and hormone independent). The phospho-substrates of PI3K-AKT-mTOR axis were used as the read-outs to reflect pathway inhibition. Cells were seeded at 60-80% confluency per well in 96-well cell culture plates. After overnight incubation at 37° C. 5% CO2, cells were treated with compounds and vehicle at 37° C. for 2 hours. […] All measurements where at least done in duplicates and confirmed by independent repetition.
Alternatively pAKT-S473 was measured using the “Akt Duplex” of the MULTI-SPOT® Assay System (Fa. Meso Scale Discovery, Cat# N41100B-1) following manufacturers instructions. Each assay used 20 μg of protein extract and measured total AKT and p-AKT content simultaneously in one well. All measurements where at least done in duplicates and confirmed by independent repetition. Values for P-AKT are expressed as percentage of P-AKT level compared to total-AKT content of the extracts.

MCF7 = assay: Tumor cell proliferation assay (CellTiter-Glo, 72 h), MCF7; type: cell-based; conditions: Homo sapiens, 72h drug exposure
Description: as §1
as §2, with “Cells were plated at 3000-5000 cells/well (depending on the cell lines) in 90 μL growth medium on MTPs (Corning; #3603, black plate, clear flat bottom). For” for “For”

[3] = target: His-tagged human recombinant kinase full-length Akt1 (Homo sapiens (Human), UniProt P31749); assay: Akt1 kinase assay (TR-FRET); type: biochemical; conditions: 10 μM ATP; read-out: Akt1, median IC50
Chain of His-tagged human recombinant kinase full-length Akt1 (P31749 whole entry): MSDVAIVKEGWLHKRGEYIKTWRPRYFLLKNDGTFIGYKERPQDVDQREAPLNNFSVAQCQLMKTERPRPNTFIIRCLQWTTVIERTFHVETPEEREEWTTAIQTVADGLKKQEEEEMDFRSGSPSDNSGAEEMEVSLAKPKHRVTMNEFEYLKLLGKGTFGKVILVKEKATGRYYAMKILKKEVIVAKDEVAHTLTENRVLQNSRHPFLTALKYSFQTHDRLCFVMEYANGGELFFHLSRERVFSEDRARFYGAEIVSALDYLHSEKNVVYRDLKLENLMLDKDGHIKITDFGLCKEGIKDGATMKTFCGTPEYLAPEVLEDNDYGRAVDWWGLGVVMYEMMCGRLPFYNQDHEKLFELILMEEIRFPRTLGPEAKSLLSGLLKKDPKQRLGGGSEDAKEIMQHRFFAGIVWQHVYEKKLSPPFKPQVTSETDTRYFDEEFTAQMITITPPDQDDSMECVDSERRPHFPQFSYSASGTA
Description: Biological Assay 1.0: Akt1 Kinase Assay
Akt1 inhibitory activity of compounds of the present invention was quantified employing the Akt1 TR-FRET assay as described in the following paragraphs.
As substrate for the kinase reaction the biotinylated peptide biotin-Ahx-[…] (C-terminus in amide form) was used which can be purchased e.g. from the company Biosynthan GmbH (Berlin-Buch, Germany).
For the assay 50 nl of a 100 fold concentrated solution of the test compound in DMSO was pipetted into a black low volume 384 well microtiter plate (Greiner Bio-One, Frickenhausen, Germany), 2 μl of a solution of Akt1 in assay buffer [50 mM TRIS/HCl pH 7.5, 5 mM MgCl2, 1 mM dithiothreitol, 0.02% (v/v) Triton X-100 (Sigma)] were added and the mixture was incubated for 15 min at 22° C. to allow prebinding of the test compounds to the enzyme before the start of the kinase reaction. […] The concentration of Akt1 in the assay was adjusted depending of the activity of the enzyme lot and was chosen appropriate to have the assay in the linear range, typical enzyme concentrations were in the range of about 0.05 ng/μl (final conc. in the 5 μl assay volume).
The resulting mixture was incubated 1 h at 22° C. to allow the binding of the biotinylated phosphorylated peptide to the streptavidine-XL665 and the antibodies. Subsequently the amount of phosphorylated substrate was evaluated by measurement of the resonance energy transfer from the anti-mouse-IgG-Eu-Chelate to the streptavidine-XL665.

[4] = KPL4 breast tumour cell line, 2 hours treatment

Row | IC50 ([1]; KPL4, 72h drug exposure) [nM] | IC50 [2, 4] [nM] | IC50 (MCF7) [nM] | IC50 [3] [nM] | IC50 ([1]; 72h drug exposure) [nM] | SMILES | IC50 ([2]; KPL4, 2 h) [nM]
1 | 8300 | 276 | 800 |  |  | COC(=O)c1cc(OC)c2nc(-c3ccc(C4(N)CCC4)cc3)c(-c3ccccc3)n2c1 [Example 1-12] | 
2 | 2000 | 359 | 1800 |  |  | NC1(c2ccc(-c3nc4ccc(-n5cccn5)cn4c3-c3ccccc3)cc2)CCC1 [Example 1-16] | 
3 | 3100 | 748 | 1900 | 308 |  | NC1(c2ccc(-c3nc4c(-c5ccc(F)cc5)cccn4c3-c3ccccc3)cc2)CCC1 [Example 2-68, 1-{4-[8-(4-fluorophenyl)-3-phenyl-imidazo[1,2-a]pyridin-2-yl]-phenyl}-cyclobutylamine] | 
4 | 2900 | 796 | 1800 | 208 |  | NC1(c2ccc(-c3nc4c(-c5cccc(F)c5)cccn4c3-c3ccccc3)cc2)CCC1 [Example 2-69] | 
5 | 2000 | 298 | 1600 |  |  | COc1cncc(-c2cccn3c(-c4ccccc4)c(-c4ccc(C5(N)CCC5)cc4)nc23)c1 [Example 2-70] | 
6 | 1900 | 153 | 1600 | 64 |  | NC1(c2ccc(-c3nc4c(-c5ccn[nH]5)cccn4c3-c3ccccc3)cc2)CCC1 [Example 2-71] | 
7 | 2100 | 814 | 1700 | 390 |  | NC1(c2ccc(-c3nc4c(-c5ccc6cn[nH]c6c5)cccn4c3-c3ccccc3)cc2)CCC1 [Example 2-72] | 
8 | 4400 | 471 | 1700 | 175 |  | CC(=O)c1ccn2c(-c3ccccc3)c(-c3ccc(C4(N)CCC4)cc3)nc2c1 [Example 2-128] | 
9 | 8400 | 731 | 1800 | 321 |  | NC1(c2ccc(-c3nc4ccc(-c5ncc[nH]5)cn4c3-c3ccccc3)cc2)CCC1 [Example 2-130] | 
10 | 2400 | 541 |  | 530 |  | NC1(c2ccc(-c3nc4ccc(-c5ccccn5)cn4c3-c3ccccc3)cc2)CCC1 [Example 2-138] | 
11 |  | 361 |  | 196 | 5300 | COC(=O)/C=C/c1ccc2nc(-c3ccc(C4(N)CCC4)cc3)c(-c3ccccc3)n2c1 [Example 2-141] | 
12 | 2600 | 114 |  | 347 |  | NC(=O)/C=C/c1ccc2nc(-c3ccc(C4(N)CCC4)cc3)c(-c3ccccc3)n2c1 [Example 2-142] | 
13 | 1700 | 66 |  | 558 |  | Cn1cc(-c2ccn3c(-c4ccccc4)c(-c4ccc(C5(N)CCC5)cc4)nc3c2)cn1 [Example 2-150] | 
14 | 1800 | 185 | 1700 | 554 |  | CC(=O)Nc1ccn2c(-c3ccccc3)c(-c3ccc(C4(N)CCC4)cc3)nc2c1 [Example 2-152] | 
15 | 10000 | 1640 | 400 | 457 |  | NC(=O)Nc1ccn2c(-c3ccccc3)c(-c3ccc(C4(N)CCC4)cc3)nc2c1 [Example 2-153] | 
16 | 7500 | 720 | 1700 | 2150 |  | CON(C)C(=O)c1ccn2c(-c3ccccc3)c(-c3ccc(C4(N)CCC4)cc3)nc2c1 [Example 2-154] | 
17 | 10000 | 965 | 1100 |  |  | NC(=O)Nc1ccc2nc(-c3ccc(C4(N)CCC4)cc3)c(-c3ccccc3)n2c1 [Example 2-157] | 
18 | 4700 | 384 | 1700 | 327 |  | CNC(=O)Nc1ccc2nc(-c3ccc(C4(N)CCC4)cc3)c(-c3ccccc3)n2c1 [Example 2-158] | 
19 | 4600 | 1460 |  | 548 |  | NCCOc1ccn2c(-c3ccccc3)c(-c3ccc(C4(N)CCC4)cc3)nc2n1 [Example 4-0, 1-{4-[7-(2-amino-ethoxy)-3-phenyl-imidazo[1,2-a]pyrimidin-2-yl]-phenyl}-cyclobutylamine] | 
20 | 3200 | 103 |  | 303 |  | NC1(c2ccc(-c3nc4ccc(O)cn4c3-c3ccccc3)cc2)CCC1 [Example 5-0, 2-[4-(1-amino-cyclobutyl)-phenyl]-3-phenyl-imidazo[1,2-a]pyridin-6-ol] | 
21 | 10000 | 3480 |  | 590 |  | NC1(c2ccc(-c3nc4c(O)cccn4c3-c3ccccc3)cc2)CCC1 [Example 5-1, 2-[4-(1-amino-cyclobutyl)-phenyl]-3-phenyl-imidazo[1,2-a]pyridin-8-ol] | 
22 | 2400 | 1770 |  | 1660 |  | C#Cc1ccn2c(-c3ccccc3)c(-c3ccc(C4(N)CCC4)cc3)nc2c1 [Example 7-0, 1-[4-(7-ethynyl-3-phenyl-imidazo[1,2-a]pyridin-2-yl)-phenyl]-cyclobutylamine] | 
23 | 10000 | 1270 |  | 12700 |  | NC(=O)CCc1ccn2c(-c3ccccc3)c(-c3ccc(C4(N)CCC4)cc3)nc2c1 [Example 8-0, 3-{2-[4-(1-amino-cyclobutyl)-phenyl]-3-phenyl-imidazo[1,2-a]pyridin-7-yl}-propionamide] | 
24 | 2500 | 923 |  | 158 |  | COC(=O)COc1ccn2c(-c3ccccc3)c(-c3ccc(C4(N)CCC4)cc3)nc2c1 [Example 9-0, {2-[4-(1-amino-cyclobutyl)-phenyl]-3-phenyl-imidazo[1,2-a]pyridin-7-yloxy}-acetic acid methyl ester] | 
25 | 1700 | 90 |  | 397 |  | NC(=O)COc1ccn2c(-c3ccccc3)c(-c3ccc(C4(N)CCC4)cc3)nc2c1 [Example 9-1] | 
26 | 900 | 25 |  | 258 |  | CN(C)C(=O)COc1ccn2c(-c3ccccc3)c(-c3ccc(C4(N)CCC4)cc3)nc2c1 [Example 9-2] | 
27 | 3100 | 6470 |  | 179 |  | COC(=O)COc1ccc2nc(-c3ccc(C4(N)CCC4)cc3)c(-c3ccccc3)n2c1 [Example 9-4] | 
28 | 2200 | 51 |  | 96 |  | N#CCOc1ccc2nc(-c3ccc(C4(N)CCC4)cc3)c(-c3ccccc3)n2c1 [Example 9-5] | 
29 | 7900 | 308 |  | 1270 |  | NC1(c2ccc(-c3nc4cc(O)ccn4c3-c3ccccc3)cc2)CCC1 [Example 10-0, 2-[4-(1-amino-cyclobutyl)-phenyl]-3-phenyl-imidazo[1,2-a]pyridin-7-ol] | 

Row | SMILES | IC50 ([1]; KPL4, 72h drug exposure) [nM] | IC50 [2, 4] [nM] | IC50 (MCF7) [nM] | IC50 [3] [nM] | IC50 ([1]; 72h drug exposure) [nM] | IC50 ([2]; KPL4, 2 h) [nM]
30 | NC1(c2ccc(-c3nc4ccc(Br)cn4c3-c3ccccc3)cc2)CCC1 [Example 2-139] | 2000 |  |  | 44 |  | 181
